Assay results reported in patent publication US11931424B2, “Combination MCL-1 inhibitors with anti-body drug conjugates” (Gilead Sciences, Inc., priority 2021, dated 2024).

Test system: panel of breast cancer cell lines
Experiment: Compound A with targeted agents and chemotherapies, 72-hour in vitro proliferation assays
Type: cell-based
Conditions: compound A × partner, 72-hour proliferation

CCOc1cc2ncc(C#N)c(Nc3ccc(OCc4ccccn4)c(Cl)c3)c2cc1NC(=O)/C=C/CN(C)C [Neratinib]
Best CI (AU565 cell line): 0.40 | Bliss Volume (AU565 cell line): 18.09 | HSA volume (AU565 cell line): 11.74 | Loewe Volume (AU565 cell line): 10.72 | Synergy Score (AU565 cell line): 19.43 | Best CI (BT-20 cell line): 0.05 | Bliss Volume (BT-20 cell line): 38.29 | HSA volume (BT-20 cell line): 28.06 | Loewe Volume (BT-20 cell line): 28.33 | Synergy Score (BT-20 cell line): 58.64 | Best CI (CAL-51 cell line): 0.29 | Bliss Volume (CAL-51 cell line): 6.99 | HSA volume (CAL-51 cell line): 4.62 | Loewe Volume (CAL-51 cell line): 6.71 | Synergy Score (CAL-51 cell line): 14.86 | Best CI (CAL-85-1 cell line): 0.13 | Bliss Volume (CAL-85-1 cell line): 22.07 | HSA volume (CAL-85-1 cell line): 18.05 | Loewe Volume (CAL-85-1 cell line): 16.51 | Synergy Score (CAL-85-1 cell line): 28.31 | Best CI (CAL-120 cell line): 0.82 | Bliss Volume (CAL-120 cell line): 4.43 | HSA volume (CAL-120 cell line): 4.29 | Loewe Volume (CAL-120 cell line): 3.99 | Synergy Score (CAL-120 cell line): 11.20 | Best CI (CAL-148 cell line): 0.21 | Bliss Volume (CAL-148 cell line): 18.81 | HSA volume (CAL-148 cell line): 13.97 | Loewe Volume (CAL-148 cell line): 17.68 | Synergy Score (CAL-148 cell line): 29.60 | Best CI (CAMA-1 cell line): 0.40 | Bliss Volume (CAMA-1 cell line): 26.19 | HSA volume (CAMA-1 cell line): 5.28 | Loewe Volume (CAMA-1 cell line): 3.50 | Synergy Score (CAMA-1 cell line): 6.88 | Best CI (DU-4475 cell line): 0.43 | Bliss Volume (DU-4475 cell line): 10.55 | HSA volume (DU-4475 cell line): 1.06 | Loewe Volume (DU-4475 cell line): 0.39 | Synergy Score (DU-4475 cell line): 2.06 | Best CI (EVSA-T cell line): 0.51 | Bliss Volume (EVSA-T cell line): 2.50 | HSA volume (EVSA-T cell line): 1.44 | Loewe Volume (EVSA-T cell line): 1.31 | Synergy Score (EVSA-T cell line): 1.92 | Best CI (HCC38): 1.06 | Bliss Volume (HCC38): 17.98 | HSA volume (HCC38): 8.02 | Loewe Volume (HCC38): 11.04 | Synergy Score (HCC38): 11.55 | Best CI (HCC70): 0.09 | Bliss Volume (HCC70): 36.07 | HSA volume (HCC70): 21.70 | Loewe Volume (HCC70): 21.51 | Synergy Score (HCC70): 42.47 | Best CI (HCC1143): 0.47 | Bliss Volume (HCC1143): 14.84 | HSA volume (HCC1143): 7.69 | Loewe Volume (HCC1143): 8.83 | Synergy Score (HCC1143): 12.39 | Best CI (HCC1569): 0.76 | Bliss Volume (HCC1569): 17.69 | HSA volume (HCC1569): 11.68 | Loewe Volume (HCC1569): 14.89 | Synergy Score (HCC1569): 23.33 | Best CI (HCC1806): 0.15 | Bliss Volume (HCC1806): 25.34 | HSA volume (HCC1806): 19.39 | Loewe Volume (HCC1806): 21.61 | Synergy Score (HCC1806): 37.41 | Best CI (HCC1937): 0.84 | Bliss Volume (HCC1937): 13.93 | HSA volume (HCC1937): 5.77 | Loewe Volume (HCC1937): 10.37 | Synergy Score (HCC1937): 13.10 | Best CI (HCC1954): 0.06 | Bliss Volume (HCC1954): 37.73 | HSA volume (HCC1954): 19.30 | Loewe Volume (HCC1954): 19.31 | Synergy Score (HCC1954): 38.93 | Best CI (HCC2218): 0.05 | Bliss Volume (HCC2218): 30.06 | HSA volume (HCC2218): 10.84 | Loewe Volume (HCC2218): 8.50 | Synergy Score (HCC2218): 20.85 | Best CI (HDQ-P1): 0.57 | Bliss Volume (HDQ-P1): 10.17 | HSA volume (HDQ-P1): 9.28 | Loewe Volume (HDQ-P1): 9.93 | Synergy Score (HDQ-P1): 17.02 | Best CI (HMC-1-8): 0.24 | Bliss Volume (HMC-1-8): 19.74 | HSA volume (HMC-1-8): 14.99 | Loewe Volume (HMC-1-8): 15.17 | Synergy Score (HMC-1-8): 30.76 | Best CI (JIMT-1): 0.18 | Bliss Volume (JIMT-1): 10.52 | HSA volume (JIMT-1): 11.00 | Loewe Volume (JIMT-1): 11.11 | Synergy Score (JIMT-1): 17.62
